Test results from patent publication US20260209234A1, “SUBSTITUTED DIHYDROPYRROLO[3,4-D]PYRIMIDINE COMPOUNDS AND THEIR USE IN TREATING MEDICAL CONDITIONS” (Karuna Therapeutics, Inc., priority 2022, published 2026).

Columns and labels:
hM4 receptors = molecular target: T1, hM4 receptors (Homo sapiens, UniProt P08173); assay: Human M4 PAM pERK assay; format: cell-based; conditions: CHO cells expressing hM4; EC20 of acetylcholine (10 nM final); TR-FRET
T1 construct: expressed in transfected cells; host or cells: CHO cells
T1 sequence (P08173 1-479): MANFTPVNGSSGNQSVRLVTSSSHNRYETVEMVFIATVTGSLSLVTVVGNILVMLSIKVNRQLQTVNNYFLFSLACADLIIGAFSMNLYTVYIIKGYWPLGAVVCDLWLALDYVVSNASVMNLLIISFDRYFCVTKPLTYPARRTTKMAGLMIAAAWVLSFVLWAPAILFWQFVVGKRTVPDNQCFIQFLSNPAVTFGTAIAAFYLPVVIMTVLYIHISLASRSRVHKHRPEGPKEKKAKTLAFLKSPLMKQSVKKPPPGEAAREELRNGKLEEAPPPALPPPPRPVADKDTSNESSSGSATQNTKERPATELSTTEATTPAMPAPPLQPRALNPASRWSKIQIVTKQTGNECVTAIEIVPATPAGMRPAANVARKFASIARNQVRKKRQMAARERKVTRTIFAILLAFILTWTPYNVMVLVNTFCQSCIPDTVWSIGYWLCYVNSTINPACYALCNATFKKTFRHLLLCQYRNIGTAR

human M4 receptor = molecular target: T2, human M4 receptor (Homo sapiens, UniProt P08173); assay: M4 GTPγS PAM assay; format: biochemical; conditions: membranes of CHO-K1 cells stably expressing human M4; EC20 acetylcholine 40 nM; 35S-GTP
T2 construct: expressed in transfected cells
T2 sequence (P08173 1-479): T1 sequence (P08173 1-479)
Procedure, shortened: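 CHO-K1 membranes stably expressing human M4, preincubated with compound and 0.1 μM GDP (final) in 20 mM HEPES, 10 mM MgCl2, 100 mM NaCl, pH 7.4, then EC20 acetylcholine (40 nM final). 35S-GTPγS binding 1 h at room temperature, filtration and scintillation counting.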

rM4 receptors = molecular target: T3, rM4 receptors (Rattus norvegicus, UniProt P08485); assay: Rat M4 PAM pERK assay; format: cell-based; conditions: CHO cells expressing rM4; EC20 of acetylcholine (10 nM final); TR-FRET
T3 construct: expressed in transfected cells; host or cells: CHO cells
T3 sequence (P08485 1-478): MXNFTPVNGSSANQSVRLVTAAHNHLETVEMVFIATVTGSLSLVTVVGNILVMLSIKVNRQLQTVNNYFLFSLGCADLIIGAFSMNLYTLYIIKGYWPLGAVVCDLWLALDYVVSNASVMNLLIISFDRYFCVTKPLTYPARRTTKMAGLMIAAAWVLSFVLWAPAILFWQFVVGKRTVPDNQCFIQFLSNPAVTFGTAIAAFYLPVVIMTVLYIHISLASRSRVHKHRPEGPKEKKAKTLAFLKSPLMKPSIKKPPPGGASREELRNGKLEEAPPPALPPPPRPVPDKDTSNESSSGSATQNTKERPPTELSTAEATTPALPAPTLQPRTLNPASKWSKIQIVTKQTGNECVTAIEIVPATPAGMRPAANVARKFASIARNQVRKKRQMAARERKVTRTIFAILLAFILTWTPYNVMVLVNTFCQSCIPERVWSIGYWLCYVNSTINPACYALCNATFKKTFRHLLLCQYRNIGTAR

| Compound | EC50 (hM4 receptors) | EC50 (human M4 receptor) | EC50 (rM4 receptors) |
| --- | --- | --- | --- |
| COc1nc2c(c(OC)n1)C(C)N(C(=O)CC1CN(c3ccc(C#N)cc3)C1)C2 (single isomer, unassigned) [Compound I-65, 4-(3-(2-(2,4-dimethoxy-5-methyl-5,7-dihydro-6H-pyrrolo[3,4-d]pyrimidin-6-yl)-2-oxoethyl)azetidin-1-yl)benzonitrile] | ≥ 2000 nM | ≥ 2000 nM | ≥ 2000 nM |
| COc1nc2c(c(OC)n1)C(C)N(C(=O)CC1CN(c3ccc(C#N)cc3)C1)C2 (single isomer, unassigned) [Compound I-66, 4-(3-(2-(2,4-dimethoxy-5-methyl-5,7-dihydro-6H-pyrrolo[3,4-d]pyrimidin-6-yl)-2-oxoethyl)azetidin-1-yl)benzonitrile] | ≤ 100 nM | 500 to 2000 nM | 100 to 500 nM |
| COc1nc2c(c(OC)n1)C(C)N(C(=O)CC1CN(c3ccnc(C(F)(F)F)c3)C1)C2 (single isomer, unassigned) [Compound I-68, 1-(2,4-Dimethoxy-5-methyl-5,7-dihydro-6H-pyrrolo[3,4-d]pyrimidin-6-yl)-2-(1-(2-(trifluoromethyl)pyridin-4-yl)azetidin-3-yl)ethan-1-one] | 100 to 500 nM | ≤ 100 nM | 100 to 500 nM |
| COc1nc2c(c(OC)n1)C(C)N(C(=O)CC1CN(c3ccnc(C(F)(F)F)c3)C1)C2 (single isomer, unassigned) [Compound I-69, 1-(2,4-Dimethoxy-5-methyl-5,7-dihydro-6H-pyrrolo[3,4-d]pyrimidin-6-yl)-2-(1-(2-(trifluoromethyl)pyridin-4-yl)azetidin-3-yl)ethan-1-one] | ≥ 2000 nM | ≥ 2000 nM | ≥ 2000 nM |
| COc1nc(OC)c2c(n1)C(C)N(C(=O)CC1CN(c3ccnc(C(F)(F)F)c3)C1)C2 (single isomer, unassigned) [Compound I-70, 1-(2,4-Dimethoxy-7-methyl-5,7-dihydro-6H-pyrrolo[3,4-d]pyrimidin-6-yl)-2-(1-(2-(trifluoromethyl)pyridin-4-yl)azetidin-3-yl)ethan-1-one] | 500 to 2000 nM | ≤ 100 nM | ≥ 2000 nM |
| COc1nc(OC)c2c(n1)C(C)N(C(=O)CC1CN(c3ccnc(C(F)(F)F)c3)C1)C2 (single isomer, unassigned) [Compound I-71, 1-(2,4-Dimethoxy-7-methyl-5,7-dihydro-6H-pyrrolo[3,4-d]pyrimidin-6-yl)-2-(1-(2-(trifluoromethyl)pyridin-4-yl)azetidin-3-yl)ethan-1-one] | 500 to 2000 nM | 500 to 2000 nM | ≥ 2000 nM |
| COc1nc(Cl)nc2c1CN(C(=O)CC1CN(c3ccnc(C(F)(F)F)c3)C1)C2 [Compound I-1, 1-(2-Chloro-4-methoxy-5,7-dihydro-6H-pyrrolo[3,4-d]pyrimidin-6-yl)-2-(1-(2-(trifluoromethyl)pyridin-4-yl)azetidin-3-yl)ethan-1-one] | 100 to 500 nM | ≤ 100 nM | 500 to 2000 nM |
| COc1nc(C#N)nc2c1CN(C(=O)CC1CN(c3ccnc(C(F)(F)F)c3)C1)C2 [Compound I-2, 4-Methoxy-6-(2-(1-(2-(trifluoromethyl)pyridin-4-yl)azetidin-3-yl)acetyl)-6,7-dihydro-5H-pyrrolo[3,4-d]pyrimidine-2-carbonitrile] | ≤ 100 nM | ≤ 100 nM | 500 to 2000 nM |
| COc1cc(N2CC(CC(=O)N3Cc4nc(C#N)nc(OC)c4C3C)C2)cc(C(F)(F)F)n1 (stereo not drawn) [Compound I-31, 4-Methoxy-6-(2-(1-(2-methoxy-6-(trifluoromethyl)pyridin-4-yl)azetidin-3-yl)acetyl)-5-methyl-6,7-dihydro-5H-pyrrolo[3,4-d]pyrimidine-2-carbonitrile] | 100 to 500 nM | ≥ 2000 nM | ≥ 2000 nM |
| COc1nc(C)nc2c1CN(C(=O)CC1CN(c3ccnc(C(F)(F)F)c3)C1)C2 [Compound I-43, 1-(4-Methoxy-2-methyl-5,7-dihydro-6H-pyrrolo[3,4-d]pyrimidin-6-yl)-2-(1-(2-(trifluoromethyl)pyridin-4-yl)azetidin-3-yl)ethan-1-one] | 100 to 500 nM | 100 to 500 nM | 500 to 2000 nM |
| COc1nc(C)nc2c1CN(C(=O)CC1CN(c3ccc(C(F)(F)F)nc3)C1)C2 [Compound I-44, 1-(4-Methoxy-2-methyl-5,7-dihydro-6H-pyrrolo[3,4-d]pyrimidin-6-yl)-2-(1-(6-(trifluoromethyl)pyridin-3-yl)azetidin-3-yl)ethan-1-one] | ≥ 2000 nM | ≥ 2000 nM | 500 to 2000 nM |
| COc1nc(C)nc2c1CN(C(=O)CC1CN(c3ncns3)C1)C2 [Compound I-45, 2-(1-(1,2,4-Thiadiazol-5-yl)azetidin-3-yl)-1-(4-methoxy-2-methyl-5,7-dihydro-6H-pyrrolo[3,4-d]pyrimidin-6-yl)ethan-1-one] | 100 to 500 nM | ≥ 2000 nM | 500 to 2000 nM |
| CCOc1nc(C)nc2c1CN(C(=O)CC1CN(c3ccnc(C(F)(F)F)c3)C1)C2 [Compound I-46, 1-(4-Ethoxy-2-methyl-5,7-dihydro-6H-pyrrolo[3,4-d]pyrimidin-6-yl)-2-(1-(2-(trifluoromethyl)pyridin-4-yl)azetidin-3-yl)ethan-1-one] | 500 to 2000 nM | 500 to 2000 nM | ≥ 2000 nM |
| Cc1nc2c(c(OC(C)C)n1)CN(C(=O)CC1CN(c3ccnc(C(F)(F)F)c3)C1)C2 [Compound I-47, 1-(4-Isopropoxy-2-methyl-5,7-dihydro-6H-pyrrolo[3,4-d]pyrimidin-6-yl)-2-(1-(2-(trifluoromethyl)pyridin-4-yl)azetidin-3-yl)ethan-1-one] | ≥ 2000 nM | ≥ 2000 nM | ≥ 2000 nM |
| Cc1nc2c(c(OC3CC3)n1)CN(C(=O)CC1CN(c3cccnc3)C1)C2 [Compound I-48, 1-(4-Cyclopropoxy-2-methyl-5,7-dihydro-6H-pyrrolo[3,4-d]pyrimidin-6-yl)-2-(1-(pyridin-3-yl)azetidin-3-yl)ethan-1-one] | 500 to 2000 nM | ≥ 2000 nM | ≥ 2000 nM |
| Cc1nc2c(c(OCC3CC3)n1)CN(C(=O)CC1CN(c3ccnc(C(F)(F)F)c3)C1)C2 [Compound I-50, 1-(4-(Cyclopropylmethoxy)-2-methyl-5,7-dihydro-6H-pyrrolo[3,4-d]pyrimidin-6-yl)-2-(1-(2-(trifluoromethyl)pyridin-4-yl)azetidin-3-yl)ethan-1-one] | ≥ 2000 nM | ≥ 2000 nM | ≥ 2000 nM |
| COc1nc2c(c(OC)n1)CN(C(=O)CC1CN(c3ccnc(C(F)(F)F)c3)C1)C2 [Compound I-64, 1-(2,4-Dimethoxy-5,7-dihydro-6H-pyrrolo[3,4-d]pyrimidin-6-yl)-2-(1-(2-(trifluoromethyl)pyridin-4-yl)azetidin-3-yl)ethan-1-one] | 100 to 500 nM | 500 to 2000 nM | ≥ 2000 nM |
| COc1nc2c(c(C3CCC3)n1)CN(C(=O)CC1CN(c3ccnc(C(F)(F)F)c3)C1)C2 [Compound I-74, 1-(4-Cyclobutyl-2-methoxy-5,7-dihydro-6H-pyrrolo[3,4-d]pyrimidin-6-yl)-2-(1-(2-(trifluoromethyl)pyridin-4-yl)azetidin-3-yl)ethan-1-one] | ≥ 2000 nM | ≥ 2000 nM | ≥ 2000 nM |
| COc1nc(C)c2c(n1)CN(C(=O)CC1CN(c3ccnc(C(F)(F)F)c3)C1)C2 [Compound I-75, 1-(2-Methoxy-4-methyl-5,7-dihydro-6H-pyrrolo[3,4-d]pyrimidin-6-yl)-2-(1-(2-(trifluoromethyl)pyridin-4-yl)azetidin-3-yl)ethan-1-one] | 100 to 500 nM | 100 to 500 nM | ≥ 2000 nM |
| COc1nc2c(c(OC(F)F)n1)CN(C(=O)CC1CN(c3cccnc3)C1)C2 [Compound I-76, 1-(4-(Difluoromethoxy)-2-methoxy-5,7-dihydro-6H-pyrrolo[3,4-d]pyrimidin-6-yl)-2-(1-(pyridin-3-yl)azetidin-3-yl)ethan-1-one] | ≥ 2000 nM | ≥ 2000 nM | ≥ 2000 nM |
| COc1nc(C2CC2)nc2c1CN(C(=O)CC1CN(c3ccnc(C(F)(F)F)c3)C1)C2 [Compound I-79, 1-(2-Cyclopropyl-4-methoxy-5,7-dihydro-6H-pyrrolo[3,4-d]pyrimidin-6-yl)-2-(1-(2-(trifluoromethyl)pyridin-4-yl)azetidin-3-yl)ethan-1-one] | 500 to 2000 nM | 100 to 500 nM | 500 to 2000 nM |
